Results reported in US12083143B2, “MLK-regulated microRNAs in angiogenesis and tumor development” (University of Massachusetts, priority 2018, dated 2024).

Columns and labels:
LLC1 cells = assay: LLC1 lung tumor formation after tail vein injection (experimental metastasis); assay type: in vivo, mouse; settings: 1×10^6 LLC1 cells with MLK inhibitor or solvent in 200 ul PBS into tail vein of WT mice; lung isolated after 20 days
Description: 1×10^6 LLC1 cells, with either MLK inhibitor (URMC-099) or solvent in 200 ul of sterile PBS were injected into the tail vein of WT mice (12-16 week of age). After 20 days of injection Lung was isolated (A) and tumor number were counted (Control—White bar; MLK inhibitor—Black bar) (B).
We also tested the role of MLK inhibitor in Lung tumor formation. […] After 20 days of injection Lung was isolated and tumor number were counted (Control—White bar; MLK inhibitor—Black bar).

primary MLEC cells = assay: qPCR of pro-angiogenic genes in primary MLEC after miR146a mimic transfection, 90 minutes hypoxia; assay type: cell-based, mouse; settings: mimic transfected 48 hours, 1% O2, versus control
Description: Either control or miR146a mimic were transfected into primary MLEC cells for 48 hours. Cells were incubated for 90 minutes in hypoxia chamber in the presence of 1% O2. RNA was isolated and qPCR was performed for genes as noted.
(§1) Total RNA was extracted from cells and tissues with the RNeasy Mini Kit (Qiagen) or TRIzol reagent (Invitrogen), and 1 μg of total RNA was reverse transcribed with oligo(dT) primers for cDNA synthesis. The expression of mRNA was examined by quantitative PCR analysis using a QuantStudio™ 6 Flex Real-Time PCR System (Applied Biosystems). Taqman© assays were used to quantitate Pgf, Adam8, Mmp9, Angptl4, Hprt (Mm00446968—m1) and Gapdh (4352339E-0904021) mRNA (Applied Biosystems). The 2^−ΔΔCT method is used for relative quantification of gene as described elsewhere^5,6. reference genes of Hprt and Gapdh have been used to normalize the PCRs in each sample.

[1] = test system: mouse lung endothelial cell (MLEC); assay: qRT-PCR of angiogenesis related genes in WT MLEC after miR146a mimic, 4 hours post hypoxia; assay type: cell-based; settings: mimic 48 hours, versus control
Description: (A-D) mRNA was isolated from WT mouse lung endothelial cell (MLEC) treated either with control or miR146a mimic for 48 hours and qRT-PCR was performed for different angiogenesis related genes after 4 hours post hypoxia
Quiescent monolayers of WT and Mlk2/3−/− primary endothelial cell MLECs were exposed to normoxia (21% O2) or hypoxia (1% O2) for 0-24 h in a hypoxia chamber. After exposure cells were immediately harvested and examined for expression of genes by qPCR or immunoblots.
as §1

CN1CCN(Cc2ccc(-c3cnc4[nH]cc(-c5ccc6[nH]ccc6c5)c4c3)cc2)CC1 [URMC-099]
LLC1 tumor formation in vivo (lung tumor number) (LLC1 cells): suppressed LLC1 tumor formation in vivo

ugagaacugaauuccauggguu (SEQ ID NO:3) [miR146a mimic]
expression of pro-angiogenic factors (VEGF, Angptl4, Angpt2, MMP9) by qPCR (primary MLEC cells): down-regulated | expression of pro-angiogenic factors (VEGF, Angptl4, Angpt2, MMP9) by qPCR (primary MLEC cells; listed as miR146a): suppressed the pro-angiogenic factors | angiogenesis related gene expression by qRT-PCR [1]: mimic the MLK deficient phenotype
